Experimental data published in patent US20130190299A1, “METHODS AND COMPOSITIONS FOR TREATMENT OF MULTIPLE SCLEROSIS” (Victoria Link Ltd., priority 2010, published 2013).

What was measured:
prolactin = assay: Serum prolactin in treated mice; format: in vivo; conditions: for serum prolactin: immunized and unimmunized mice
[1] = test system: bone marrow-derived macrophages; assay: Bone marrow-derived macrophages treated in vitro with or without LPS; conditions: for macrophage viability (MTT dye reduction): presence or absence of LPS
Protocol: Identification of how risperidone alters pro-inflammatory and/or anti-inflammatory immune responses is necessary.
Studies were conducted herein to evaluate the regulation of macrophage proinflammatory responses in vitro.

[2] = Body weight of treated normal and immunized mice; conditions: for body weight in normal mice: normal (unimmunized) mice
EAE [3] = test system: EAE
Protocol: FIG. 1A illustrates an exemplary treatment of C57BL/6 mice with risperidone (administered in drinking water; 3 mg/kg/day) following immunization to induce EAE with MOG (myelin oligodendrocyte glycoprotein) peptide in complete Freund's adjuvant. Disease score is based on the progressive ascending paralysis that characterizes EAE in this animal model where 0=normal and 5=complete body paralysis (i.e. moribund).
FIG. 1B illustrates an exemplary treatment of C57BL/6 mice with risperidone (administered in drinking water; 3 mg/kg/day) following immunization to induce EAE. The data is from 4 separate and independent experiments.
AUC was measured from days 0-26 and the results are from 4 separate and independent experiments.
In these preliminary studies risperidone was given in the drinking water at a calculated dose of 1 or 3 mg/kg/day.
Commonly this time period is between 13-20 days post immunization with myelin oligodendrocyte glycoprotein (50 μg/mouse) in complete Freund's adjuvant and injected i.p with pertussis toxin (200 ng/mouse) on days 0 and 2. Treatment during the “chronic” stage (when disease scores remain stable) may begin 30 days post immunization with myelin oligodendrocyte glycoprotein. For all of these studies, the optimal dose of risperidone may be used as determined by the experiments described above. […] This model is well established and has the added benefit of having many different immunological reagents available for use in the C57BL/6 system.

splenocytes = assay: Cellular profile of spleen in treated mice (flow cytometry); format: in vivo, C57BL/6 mice
From the text: (§1) The effect of drug treatment on antigen-specific immune responses can be determined at 8 (pre-onset), […] draining lymph node (LN) cells and splenocytes from untreated and risperidone-treated, immunized or unimmunized mice. Cytokine production in response to myelin oligodendrocyte glycoprotein antigen (MOG) can be assessed by cytokine bead assay, which measures 10 cytokines simultaneously, or ELISA, and proliferation can be measured by ^3H thymidine uptake. Cellular profiles in the spleen and lymph node cells can be determined by flow cytometric analysis and can include markers for helper T cells, T regulatory cells, and macrophages.

[4] = test system: auto-reactive T cell responses; assay: Cytokine production and T cell proliferation in response to MOG antigen or ConA, cells from treated immunized mice; format: cell-based, C57BL/6 mice
From the text: (§2) Shown are the mean and standard error of the mean (n=5 mice per group).
as §2, §2, §2, §2, §2
FIG. 5A illustrates exemplary antigen specific (L-17 production (pg/ml) in C57BL/6 mice, which were treated with risperidone or vehicle alone, and immunized to induce EAE 40 days earlier. Shown are the mean and standard error of the mean (n=5-10 mice per group).
FIG. 5B illustrates exemplary antigen specific interferon y production (pg/ml) in C57BL/6 mice, which were treated with risperidone or vehicle alone, and immunized to induce EAE 40 days earlier. Shown are the mean and standard error of the mean (n=5-10 mice per group).
FIG. 5C illustrates exemplary antigen specific IL-10 production (pg/ml) in C57BL/6 mice, which were treated with risperidone or vehicle alone, and immunized to induce EAE 40 days earlier. Shown are the mean and standard error of the mean (n=5-10 mice per group).
FIG. 5D illustrates exemplary T cell proliferation in counts per minute in immunized and normal C57BL/6 mice, which were treated with risperidone or vehicle alone. Shown are the mean and standard error of the mean (n=5-10 mice per group).
as §1, with “drug” for “drug treatment on antigen-specific immune responses can be determined at 8 (pre-onset),”

microglia = assay: Microglial reactivity by Iba-1 expression in brains of immunized mice; format: in vivo
Protocol: FIG. 9A illustrates exemplary Iba-1 expression on microglia in the cerebellum of mice. […] Tissue samples were taken at peak disease (15 days post immunization). Shown are the scores for microglia reactivity (Iba score) and disease.
One group (risperidone d11) was immunized but only received risperidone treatment starting at day 11 (i.e. after disease onset). Scores for Iba-1 reactivity were assessed blinded and derived from a combined score for Iba intensity (0-3) and # Iba+ foci (0-3).
Scores for Iba-1 reactivity were assessed blinded and derived from a combined score (0-6) for Iba intensity (0-3) and number of Iba+ foci (0-3). Scores for the following brain regions were combined: cerebellum, brain stem, hippocampus, and olfactory bulb (0-24).
Scores for Iba-1 reactivity in the cerebellum were assessed blinded and derived from a combined score (0-6) for Iba intensity (0-3) and number of Iba+ foci (0-3).
Studies were performed to assess microglial reactivity via the expression of Iba-1 (FIG. 9A-F).

[5] = test system: splenic macrophages (F4/80+ cells); assay: Activation markers on splenic macrophages of immunized mice at peak disease (flow cytometry); format: in vivo, C57BL/6 mice; conditions: risperidone 3 mg/kg/day
Protocol: Studies were also conducted herein to evaluate the regulation of macrophage proinflammatory responses in vivo.

EAE [6] = assay: EAE model in IL-4Ra-deficient BALB/c mice; format: in vivo; conditions: BALB/c mice deficient in IL-4Ra
[7] = biological target: dopaminergic D2 receptors (Homo sapiens, UniProt P14416); conditions: cited from earlier work
dopaminergic D2 receptors, sequence (P14416 whole entry): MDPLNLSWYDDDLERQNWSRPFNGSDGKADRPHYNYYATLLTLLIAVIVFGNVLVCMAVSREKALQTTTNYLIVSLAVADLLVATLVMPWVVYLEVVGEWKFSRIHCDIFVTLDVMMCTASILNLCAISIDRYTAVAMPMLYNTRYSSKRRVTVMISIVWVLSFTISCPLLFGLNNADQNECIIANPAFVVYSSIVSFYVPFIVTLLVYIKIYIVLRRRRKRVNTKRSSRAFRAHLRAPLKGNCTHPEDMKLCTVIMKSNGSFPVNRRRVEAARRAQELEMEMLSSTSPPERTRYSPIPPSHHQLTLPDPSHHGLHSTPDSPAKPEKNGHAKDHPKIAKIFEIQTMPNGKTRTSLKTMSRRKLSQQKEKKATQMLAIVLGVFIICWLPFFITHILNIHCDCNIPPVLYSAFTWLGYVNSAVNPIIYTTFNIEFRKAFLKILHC

al-adrenergic receptors = conditions: cited from earlier work
α2-adrenergic receptors = conditions: cited from earlier work
cholinergic receptors = conditions: cited from earlier work
[8] = Pajonk, 2004, cited from earlier work
EAE [9] = assay: EAE model in BALB/c mice immunized with PLP peptide
[10] = test system: bone marrow-derived macrophages; conditions: positive control; La Flamme, unpublished results; cited from earlier work
[11] = 20 μg/ml risperidone or 10 μ/ml clozapine
[12] = chronic stage of disease, 40 days after immunization
[13] = chronic stage, 40 days post immunization
[14] = peak disease, 21 days post immunization
[15] = 20 μg/ml risperidone or 10 μ/ml clozapine, versus vehicle-treated macrophages

CN1CCN(C2=Nc3cc(Cl)ccc3Nc3ccccc32)CC1 [clozapine]
serum prolactin (prolactin): not observed | macrophage viability (MTT dye reduction) [1, 11]: fully viable | body weight in normal mice [2]: promotes weight gain

Cc1nc2n(c(=O)c1CCN1CCC(c3noc4cc(F)ccc34)CC1)CCCC2 [risperidone, 3-[2-[4-(6-fluoro-1,2-benzisoxazol-3-yl)-1-piperidinyl]ethyl]-6,7,8,9-tetrahydro-2-methyl-4H-pyrido[1,2-a]pyrimidin-4-one]
protective effect in dose-response (EAE [3]; 3 mg/kg/day, p<0.0001 by 2-way ANOVA): significant protective effect | area under the curve (AUC), total disease burden (EAE [3]; AUC of disease score, risperidone days 0-26, 4 independent experiments): reduction | average disease score during the chronic stage (EAE [3]; drinking water from one day before immunization): stable reduction | detrimental effects on the mice (EAE [3]; risperidone 1 or 3 mg/kg/day, immunized or unimmunized mice, aside from slight weight gain): no detrimental effects | efficacy of higher versus lower dose (EAE [3]; risperidone 3 vs 1 mg/kg/day, clozapine 30 vs 15 mg/kg/day): 3 mg/kg/day is more effective | time of onset or incidence of EAE (EAE [3]; risperidone daily from the time of immunization): does not alter | number of helper T cells (CD4+CD25−) in the spleen (splenocytes; [12]): does not alter | number of neutrophils (Gr1+ cells) in the spleen (splenocytes; [12]): reduce | number of regulatory T cells (CD4+CD25+ Treg) in the spleen (splenocytes; [12]): enhance | overall immune cells in the spleen (total splenocyte numbers) (splenocytes; peak disease (day 21), risperidone 3 mg/kg/day, clozapine 30 mg/kg/day, unimmunized and immunized mice): does not result in overall loss | production of IL-10 with polyclonal stimulus (ConA) ([4]; 21 days post immunization): no alteration | production of INF-γ with polyclonal stimulus (ConA) ([4]; 21 days post immunization): no alteration | MOG specific IFN-γ production [4, 13]: enhance | MOG-specific IL-10 production [4, 13]: no effect | MOG-specific IL-17 production [4, 13]: no effect | MOG-specific proliferation [4, 13]: no effect | production of IFN-γ in response to MOG antigen [4, 14]: does not alter | production of IL-10 in response to MOG antigen [4, 14]: significantly reduce | production of IL-17 in response to MOG antigen [4, 14]: significantly reduce | serum prolactin (hyperprolactinemia) (prolactin; BALB/c mice): develop hyperprolactinemia | serum/plasma prolactin (hyperprolactinemia) (prolactin; IL-4Ra-deficient BALB/c mice): develop hyperprolactinemia | serum prolactin (prolactin): high levels of serum prolactin | microglial reactivity (Iba-1 expression) (microglia; immunized mice, peak disease (15 days post immunization), cerebellum, brain stem, hippocampus, olfactory bulb): greatly reduced | microglial reactivity (Iba-1 expression), treatment after disease onset (microglia; treatment starting at day 11 post-immunization, assessed on day 15): reduces microglial reactivity | macrophage viability (MTT dye reduction) [1, 11]: fully viable | IL-12 production in response to LPS [1, 15]: produce less | NO production in response to LPS [1, 15]: produce less | IL-10 production in response to LPS ([1]; risperidone 20 μg/ml, versus vehicle-treated macrophages): produce more | CD40 expression on splenic macrophages [5]: reduced CD40 expression | number of CD40-expressing splenic macrophages [5]: not reduced | MHC class II expression on splenic macrophages ([5]; clozapine 30 mg/kg/day, versus vehicle-treated immunized mice): reduced MHC class II expression | reduction in disease symptoms (EAE [6]): do not experience a reduction in disease symptoms | % incidence versus vehicle (EAE [6]; 2 independent experiments): no difference in % incidence | affinity for dopaminergic D2 receptors [7]: high affinity | binding to al-adrenergic receptors (al-adrenergic receptors): binds | affinity for α2-adrenergic receptors (α2-adrenergic receptors): lower affinity | affinity for cholinergic receptors (cholinergic receptors): no affinity | maximum tolerated dose in mice [8]: unable to identify a maximum tolerated dose | toxicity ([8]; mice treated daily with doses up to 10 mg/kg/day for 18 months): no toxicity | weight loss associated with EAE ([2]; mice immunized with MOG peptide): reduce the weight loss | body weight in normal mice [2]: promotes weight gain | % incidence (EAE [9]; 2 independent experiments, same for vehicle group): 73% | disease severity (EAE [9]; oral, from one day before immunization with PLP): significantly reduced disease severity

Glatiramer acetate
pro-inflammatory (IL-12) cytokine production by LPS-stimulated macrophages [10]: reduce
